Reference: US8124793B2, “Derivatives of ethylene methanedisulfonate as cancer chemotherapeutic agents” (priority 2007, dated 2012)

Columns and labels:
[1] = tested on: BT-549; assay: NCI screen, growth of human tumor cells: Breast Cancer BT-549; format: cell-based
How it was run: (§1)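 The NCI screen tests each compound on human cancer cell lines and reports percent growth. Concentrations are given in molar units; the number of data points per compound is sixty at minimum.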

[2] = tested on: human cancer cells; assay: NCI screen summary over the cancers tested (negative growth of human cancer cells); format: cell-based; settings: cancers with negative growth / cancers tested
Description: (§2) In the NCI screening process, each compound was tested and described by a minimum of 60 data points. The test data include, but are not limited to the type of cancer, the molar concentration used in the screen, and the percent growth of the cancer. In some cases, NMR and elemental analysis were used for structural assignment.
The derivatives in the tables are grouped using the same category as in the tables 1-6.

[3] = tested on: CCRF-CEM; assay: NCI screen, growth of human tumor cells: Leukemia CCRF-CEM; format: cell-based; settings: CCRF-CEM (Leukemia), 10^−4 molar
How it was run: as §1

[4] = tested on: RPMI-8226; assay: NCI screen, growth of human tumor cells: Leukemia RPMI-8226; format: cell-based; settings: RPMI-8226 (Leukemia), 10^−4 molar
How it was run: as §1

[5] = tested on: SR; assay: NCI screen, growth of human tumor cells: Leukemia SR; format: cell-based; settings: SR (Leukemia), 10^−4 molar
How it was run: as §1

[6] = tested on: AS49/ATCC; assay: NCI screen, growth of human tumor cells: Non-Small Cell Lung AS49/ATCC; format: cell-based; settings: AS49/ATCC (Non-Small Cell Lung), 10^−4 molar
Description: as §2

[7] = tested on: HOP-62; assay: NCI screen, growth of human tumor cells: Non-Small Cell Lung HOP-62; format: cell-based; settings: HOP-62 (Non-Small Cell Lung), 10^−4 molar
How it was run: as §1

[8] = tested on: NCI-H226; assay: NCI screen, growth of human tumor cells: Non-Small Cell Lung NCI-H226; format: cell-based; settings: NCI-H226, 10^−4 molar
How it was run: as §1

[9] = tested on: NCI-H522; assay: NCI screen, growth of human tumor cells: Non-Small Cell Lung NCI-H522; format: cell-based; settings: NCI-H522, 10^−4 molar
How it was run: as §1

[10] = tested on: NCI-H322M; assay: NCI screen, growth of human tumor cells: Non-Small Cell Lung NCI-H322M; format: cell-based; settings: NCI-H322M (Non-Small Cell Lung), 10^−4 molar
Description: as §2

[11] = tested on: NCI-H23; assay: NCI screen, growth of human tumor cells: Non-Small Cell Lung NCI-H23; format: cell-based; settings: NCI-H23, 10^−4 molar
How it was run: as §1

[12] = tested on: COLO205; assay: NCI screen, growth of human tumor cells: Colon Cancer COLO205; format: cell-based; settings: COLO205, 10^−4 molar
How it was run: as §1

[13] = tested on: HCT-116; assay: NCI screen, growth of human tumor cells: Colon Cancer HCT-116; format: cell-based; settings: HCT-116 (Colon Cancer), 10^−4 molar
How it was run: as §1

[14] = tested on: HT29; assay: NCI screen, growth of human tumor cells: Colon Cancer HT29; format: cell-based
Description: as §2

[15] = tested on: KM12; assay: NCI screen, growth of human tumor cells: Colon Cancer KM12; format: cell-based; settings: KM12 (Colon Cancer), 10^−4 molar
How it was run: as §1

[16] = tested on: SF-268; assay: NCI screen, growth of human tumor cells: CNS Cancer SF-268; format: cell-based; settings: SF-268 (CNS Cancer), 10^−4 molar
How it was run: as §1

[17] = tested on: SF-295; assay: NCI screen, growth of human tumor cells: CNS Cancer SF-295; format: cell-based; settings: SF-295, 10^−4 molar
How it was run: as §1

[18] = tested on: SF-539; assay: NCI screen, growth of human tumor cells: CNS Cancer SF-539; format: cell-based; settings: SF-539, 10^−4 molar
How it was run: as §1

[19] = tested on: U-251; assay: NCI screen, growth of human tumor cells: CNS Cancer U-251; format: cell-based; settings: U-251 (CNS Cancer), 10^−4 molar
How it was run: as §1

[20] = tested on: M14; assay: NCI screen, growth of human tumor cells: Melanoma M14; format: cell-based; settings: M14 (Melanoma), 10^−4 molar
How it was run: as §1

[21] = tested on: MALME-3M; assay: NCI screen, growth of human tumor cells: Melanoma MALME-3M; format: cell-based; settings: MALME-3M, 10^−4 molar
Description: as §2

[22] = tested on: SK-MEL-2; assay: NCI screen, growth of human tumor cells: Melanoma SK-MEL-2; format: cell-based; settings: SK-MEL-2 (Melanoma), 10^−4 molar
Description: as §2

[23] = tested on: SK-MEL-28; assay: NCI screen, growth of human tumor cells: Melanoma SK-MEL-28; format: cell-based
Description: as §2

[24] = tested on: SK-MEL-5; assay: NCI screen, growth of human tumor cells: Melanoma SK-MEL-5; format: cell-based; settings: SK-MEL-5, 10^−4 molar
How it was run: as §1

[25] = tested on: UACC-257; assay: NCI screen, growth of human tumor cells: Melanoma UACC-257; format: cell-based; settings: UACC-257 (Melanoma), 10^−4 molar
Description: as §2

[26] = tested on: UACC-62; assay: NCI screen, growth of human tumor cells: Melanoma UACC-62; format: cell-based; settings: UACC-62, 10^−4 molar
How it was run: as §1

[27] = tested on: IGROVI; assay: NCI screen, growth of human tumor cells: Ovarian Cancer IGROVI; format: cell-based; settings: IGROVI (Ovarian Cancer), 10^−4 molar
Description: as §2

[28] = tested on: SK-OV-3; assay: NCI screen, growth of human tumor cells: Ovarian Cancer SK-OV-3; format: cell-based; settings: SK-OV-3 (Ovarian Cancer), 10^−4 molar
Description: as §2

[29] = tested on: OVCAR-3; assay: NCI screen, growth of human tumor cells: Ovarian Cancer OVCAR-3; format: cell-based; settings: OVCAR-3 (Ovarian Cancer), 10^−4 molar
How it was run: as §1

[30] = tested on: OVCAR-5; assay: NCI screen, growth of human tumor cells: Ovarian Cancer OVCAR-5; format: cell-based; settings: OVCAR-5, 10^−4 molar
Description: as §2

[31] = tested on: ACHN; assay: NCI screen, growth of human tumor cells: Renal Cancer ACHN; format: cell-based; settings: ACHN (Renal Cancer), 10^−4 molar
How it was run: as §1

[32] = tested on: RXF-393; assay: NCI screen, growth of human tumor cells: Renal Cancer RXF-393; format: cell-based; settings: RXF-393 (Renal Cancer), 10^−4 molar
How it was run: as §1

[33] = tested on: SN12C; assay: NCI screen, growth of human tumor cells: Renal Cancer SN12C; format: cell-based; settings: SN12C (Renal Cancer), 10^−4 molar
How it was run: as §1

[34] = tested on: DU-145; assay: NCI screen, growth of human tumor cells: Prostate Cancer DU-145; format: cell-based; settings: DV-145, 10^−4 molar
How it was run: as §1

[35] = tested on: MCF 7; assay: NCI screen, growth of human tumor cells: Breast Cancer MCF 7; format: cell-based; settings: MCF 7 (Breast Cancer), 10^−4 molar
Description: as §2

[36] = tested on: HS 578T; assay: NCI screen, growth of human tumor cells: Breast Cancer HS 578T; format: cell-based; settings: HS 578T (Breast Cancer), 10^−4 molar
How it was run: as §1

In the case of O=S1(=O)OCCOS(=O)(=O)C1(F)Br [NSC 665943, ethylene fluorobromomethanedisulfonate], the “% Growth” value ([1]; BT-549, 10^−4 molar) is reported as 12%, the “% Growth” value ([1]; BT-549, 10^−5 molar) is reported as 28% and the “% Growth” value ([1]; BT-549, 10^−6 molar) is reported as 52%. The “% Growth” value ([1]; BT-549, 10^−7 molar) was 42%, the “% Growth” value ([1]; BT-549, 10^−8 molar) was 44% and the “Percentage of cancers showing negative growth cancers tested” value (“Percentage” for short) ([2]; 10^−4 M conc.) was 10^−4 M conc. = 0/1 = 0%. For the same compound, the melting point was 82 to 90 °C.
With CC1=C(CC2(C(=O)C(F)(F)C(F)(F)C(F)(F)F)S(=O)(=O)OCCOS2(=O)=O)C(=O)c2ccccc2C1=O [NSC 720683, ethylene perfluorobutyril-(3-methyl-1,4-naphtho-2-quinoyl)-1,1-ethanedisulfonate] the “percent of growth of human tumor cells” value [3] was 5%, the “percent of growth of human tumor cells” value [4] was 28% and the “percent of growth of human tumor cells” value [5] was −22%. For the same compound, the “percent of growth of human tumor cells” value [6] was −45%, the “percent of growth of human tumor cells” value [7] was −28% and the “% Growth” value [8] was −68%. For the same compound, the “% Growth” value [9] was −68%, the “percent of growth of human tumor cells” value [10] was 25% and the “% Growth” value [11] was −75%. For the same compound, the “% Growth” value [12] was −84%, the “percent of growth of human tumor cells” value [13] was 22% and the “% Growth” value ([14]; HT-29, 10^−4 molar) was −100%. The “% Growth” value ([14]; HT-29, 10^−5 molar) was −37%, the “% Growth” value ([14]; HT-29, 10^−6 molar) was −6% and the “% Growth” value ([14]; HT-29, 10^−7 molar) was 23%. The “percent of growth of human tumor cells” value [15] was 26%, the “percent of growth of human tumor cells” value [16] was 1% and the “% Growth” value [17] was −70%. For the same compound, the “% Growth” value [18] was −67%, the “percent of growth of human tumor cells” value [19] was 12% and the “percent of growth of human tumor cells” value [20] was −56%. For the same compound, the “% Growth” value [21] was −87%, the “percent of growth of human tumor cells” value [22] was −57% and the “% Growth” value ([23]; SK-MEL-28, 10^−4 molar) was −85%. The “% Growth” value ([23]; SK-MEL-28, 10^−5 molar) was −55%, the “% Growth” value ([23]; SK-MEL-28, 10^−6 molar) was −31% and the “% Growth” value ([23]; SK-MEL-28, 10^−7 molar) was 31%. The “% Growth” value ([23]; SK-MEL-28, 10^−8 molar) was 74%, the “% Growth” value [24] was −95% and the “percent of growth of human tumor cells” value [25] was −18%. The “% Growth” value [26] was −85%, the “percent of growth of human tumor cells” value [27] was 27% and the “percent of growth of human tumor cells” value [28] was 24%. For the same compound, the “percent of growth of human tumor cells” value [29] was 30%, the “% Growth” value [30] was −71% and the “percent of growth of human tumor cells” value [31] was −27%. For the same compound, the “percent of growth of human tumor cells” value [32] was 9%, the “percent of growth of human tumor cells” value [33] was −37% and the “% Growth” value [34] was −100%. For the same compound, the “percent of growth of human tumor cells” value [35] was −24%, the “percent of growth of human tumor cells” value ([1]; BT-549 (Breast Cancer), 10^−4 molar) was −50% and the “percent of growth of human tumor cells” value [36] was −14%. The “Percentage” value ([2]; 10^−5 M conc.) was 100% and the “Percentage” value ([2]; 10^−6 M conc.) was 100%.
